# Assay results taken from patent US20040110821A1, “GAL3 receptor antagonists for the treatment of affective disorders” (priority 2002, published 2004).
# Where “and” joins values, the source holds several entries; their conditions need not be identical. Identical values can stand only once. Marks after values point to notes of the source that are not given here.
# Test system: Male Sprague-Dawley rats
# Assay: Rat Forced Swim Test (FST)
# Type: in vivo
# Settings: for overall profile in the Forced Swim Test (conclusion in words): rat, in vivo
# [1] = 3 mg/kg p.o., single administration 24 hours before the test
# [2] = 3 mg/kg p.o., single administration 1 hr before 5 min test
# [3] = 3 mg/kg p.o., single administration 1 hr before 5 min test, listed as EX22
# [4] = 10 mg/kg p.o., single administration 1 hr before 5 min test
# [5] = 10 mg/kg p.o., single administration 1 hr before 5 min test, listed as EX22
# [6] = 30 mg/kg p.o., single administration 1 hr before 5 min test
# [7] = 30 mg/kg p.o., single administration 1 hr before 5 min test, listed as EX22
# [8] = 1 mg/kg p.o., single administration 1 hr before 5 min test
# [9] = 5 mg/kg p.o., single administration 1 hr before 5 min test
# [10] = 10 mg/kg p.o., single administration 1 hr before 5 min test, listed as Fluox
# [11] = 10 mg/kg p.o., single administration 1 hr before 5 min test, listed as fluoxetine
# [12] = 10 mg/kg p.o., single administration 24 hours before the test
SMILES,overall profile in the Forced Swim Test (conclusion in words),Climbing [2],Diving [2],Immobility [2],Swimming [2],Climbing [4],Diving [4],Immobility [4],Swimming [4],Climbing [6],Diving [6],Immobility [6],Swimming [6],also measured
"O=C1/C(=N\c2ccc(Cl)c(Cl)c2)c2ccccc2N1c1ccsc1 [Example 272, (3Z)-3-[(3,4-DICHLOROPHENYL)IMINO]-1-(3-THIENYL)-1,3-DIHYDRO-2H-INDOL-2-ONE]",has the profile of an antidepressant-like,–,–,–,–,–,–,–,–,–,–,–,–,Climbing [1]: not significantly altered; Diving [1]: not significantly altered; Immobility [1]: significantly decreased immobility; Swimming [1]: significant increase in swimming behavior
Cc1ccc(Nc2cc(N3CCCCC3)nc(N(C)CCc3ccccc3)n2)cc1 [Example 22],has antidepressant-like properties,2.0 ± 0.6 counts,not significantly altered,50 ± 0.9 counts,did not significant alter swimming behavior,2.9 ± 0.5 counts,not significantly altered,significant decrease in immobility,significant increase in swimming,significant increase in climbing,not significantly altered,significant decrease in immobility,significantly greater increase in swimming behavior,Diving [3]: 0.4 ± 0.4 counts; Swimming [3]: 7.6 ± 0.5 counts; Diving [5]: 0.4 ± 0.3 counts; Immobility [5]: 41 ± 1.3^c counts; Swimming [5]: 15.3 ± 0.8^g counts; Climbing [7]: 5.2 ± 1.0^a counts; Diving [7]: 0.0 ± 0.0 counts; Immobility [7]: 31 ± 2.8^b counts; Swimming [7]: 23.2 ± 2.0^f counts
"O=C1C(=Nc2ccc(Br)cc2)c2ccccc2N1c1ccccc1 [Example 98, 3-[(4-BROMOPHENYL)IMINO]-1-PHENYL-1,3-DIHYDRO-2H-INDOL-2-ONE]",produces a profile in the modified Lucki version of the FST resembling that of the clinically established antidepressant fluoxetine,no significant difference in the number of climbing counts,not significantly altered,significantly decreased immobility,significantly increased swimming,no significant difference in the number of climbing counts,not significantly altered,significantly decreased immobility,significantly increased swimming,no significant difference in the number of climbing counts,not significantly altered,significantly decreased immobility,significantly increased swimming,–
"O=C1C(=Nc2ccc(C(F)(F)F)cc2)c2ccccc2N1c1ccccc1 [Example 95, 1-PHENYL-3-[[4-(TRIFLUOROMETHYL)PHENYL]IMINO]-1,3-DIHYDRO-2H-INDOL-2-ONE]",does not produce antidepressant-like actions in the forced swim test,"did not significantly alter swimming, climbing, immobility or diving behavior","did not significantly alter swimming, climbing, immobility or diving behavior","did not significantly alter swimming, climbing, immobility or diving behavior","did not significantly alter swimming, climbing, immobility or diving behavior",–,–,significantly increased rat immobility,significantly decreased swim behavior,–,–,significantly increased rat immobility,significantly decreased swim behavior,–
CN(C)c1cc(Nc2ccc(Cl)c(Cl)c2)nc(N2CCN(Cc3ccccc3)CC2)n1 [EX151],–,2.4 ± 0.5 counts,0.3 ± 0.2 counts,38 ± 2.0^a counts,19.5 ± 1.5^e counts,2.2 ± 0.5 counts,0.3 ± 0.2 counts,39 ± 1.8^b counts,18.9 ± 1.5^e counts,–,–,–,–,Climbing [8]: 2.3 ± 0.6 counts; Diving [8]: 0.2 ± 0.2 counts; Immobility [8]: 41 ± 2.0 counts; Swimming [8]: 16.8 ± 1.4^d counts
O=C1C(=Nc2cc(Cl)cc(Cl)c2)c2ccccc2N1c1ccccc1 [EX103],–,–,–,–,13.2 ± 1.9 counts,–,–,–,–,–,–,–,–,–
CN(C)c1cc(Nc2ccc(Cl)c(Cl)c2)nc(N2CCN(Cc3ccccc3)CC2)n1 [Example 151],produces behavioral effects in the FST in rats that resemble those of antidepressants,not significantly altered,not significantly altered,significantly decreased immobility,significantly increased swimming,not significantly altered,not significantly altered,significantly decreased immobility,significantly increased swimming,–,–,–,–,Climbing [8]: not significantly altered; Diving [8]: not significantly altered; Immobility [8]: did not significantly alter immobility; Swimming [8]: significantly increased swimming
"O=C1C(=Nc2cc(Cl)cc(Cl)c2)c2ccccc2N1c1ccccc1 [Example 103, 3-[(3,5-DICHLOROPHENYL)IMINO]-1-PHENYL-1,3-DIHYDRO-2H-INDOL-2-ONE]",has antidepressant-like properties,not significantly altered,not significantly altered,did not significantly alter immobility,did not significantly alter swimming behavior,not significantly altered,not significantly altered,did not significantly alter immobility,did not significantly alter swimming behavior,not significantly altered,not significantly altered,significant decrease in immobility,significantly greater increase in swimming behavior,–
"CNCCC(Oc1ccc(C(F)(F)F)cc1)c1ccccc1 (stereo not shown) [Fluoxetine, fluoxetine, reference compound]",–,–,–,–,–,–,–,–,–,–,–,–,–,"Climbing [9]: not significantly altered; Diving [9]: not significantly altered; Immobility [9]: did not significantly alter immobility; Swimming [9]: did not significantly alter swimming; Climbing (10 mg/kg i.p., single injection 1 h before 5 min test): did not significantly alter climbing counts; Immobility [10]: 38 ± 2.3^a counts and 34 ± 2.3^b counts and 34 ± 3.0^a counts and 34 ± 3.3^b counts and 38 ± 1.3^b counts and 39 ± 1.7^d counts and 38 ± 2.2 counts; Swimming [10]: 19.8 ± 1.8^e counts and 21.8 ± 1.4^c counts and 22.8 ± 2.2^c counts and 21.3 ± 1.8^d,e counts and 21.6 ± 1.1^e counts and 19.2 ± 1.2^e counts and 20.0 ± 1.5^c counts; Diving (10 mg/kg p.o., single administration 1 hr before 5 min test, listed as fluoxet-ine): not significantly altered; Diving [11]: not significantly altered; Immobility [11]: significantly decreased immobility; Swimming [11]: significant increase in swimming behavior; Climbing [12]: not significantly altered; Diving [12]: not significantly altered; Immobility [12]: significantly decreased immobility; Swimming [12]: significant increase in swimming behavior"
